Measurements from ChEMBL document CHEMBL3286271, “Synthesis and cytotoxic effect on cancer cell lines and macrophages of novel progesterone derivatives having an ester or a carbamate function at C-3 and C-17” (Eur J Med Chem, 2014).
The source made the active and inactive calls. The calls are words filed in the database; no cut-off is given here.

Key:
[1] = (§1) Cytotoxicity against human HCT15 cells assessed as growth inhibition at 50 uM after 48 hrs by SRB method; assay type: functional; conditions: HCT-15, 48 h, read-out: GI
MCF7 = experiment: Cytotoxicity against human MCF7 cells assessed as growth inhibition at 50 uM after 48 hrs by SRB method; assay type: functional; conditions: for inhibition of growth at 50 µM: MCF7, 48 h, read-out: GI
[2] = Cytotoxicity against mouse J774 cells assessed as growth inhibition at 50 uM after 48 hrs by SRB method; assay type: cell-based; conditions: read-out: GI
PC-3 = experiment: Cytotoxicity against human PC3 cells assessed as growth inhibition at 50 uM after 48 hrs by SRB method; assay type: functional; conditions: PC-3, 48 h, read-out: GI
HCT-15 = experiment: as §1; assay type: functional

**Q.** For CC(=O)[C@@]1(OC(=O)c2ccc(Br)cc2)CC[C@H]2[C@@H]3C=CC4=CC(=O)CC[C@]4(C)[C@H]3CC[C@@]21C, which inhibition of growth at 50 µM [1] is on record?
**A.** 53.9%

**Q.** And the inhibition of growth at 50 µM (MCF7)?
**A.** 44.4%

**Q.** What about the inhibition at 48 h, 50 µM [2] of the same compound?
**A.** 57%

**Q.** And the inhibition of growth at 50 µM (PC-3)?
**A.** 84.7%

**Q.** For CC(=O)[C@@]1(OC(=O)Nc2ccc(Cl)cc2)CC[C@H]2[C@@H]3C=CC4=CC(=O)CC[C@]4(C)[C@H]3CC[C@@]21C, which “growth inhibition (GI)” value (HCT-15) is on record?
**A.** inactive

**Q.** What about the inhibition of growth at 50 µM (MCF7) of the same compound?
**A.** 11.2%

**Q.** What about the inhibition at 48 h, 50 µM [2] of the same compound?
**A.** 36.9%

**Q.** And the inhibition of growth at 50 µM (PC-3)?
**A.** 15.8%

**Q.** What does the source list for CC(=O)C1=CC[C@H]2[C@@H]3CC(=O)C4=C[C@@H](OC(=O)Nc5ccc(I)cc5)CC[C@]4(C)[C@H]3CC[C@]12C?
**A.** inhibition of growth at 50 µM [1]: 43.2%; inhibition of growth at 50 µM (MCF7): 33.1%; inhibition at 48 h, 50 µM [2]: 70.7%; inhibition of growth at 50 µM (PC-3): 42.8%

**Q.** Which inhibition of growth at 50 µM [1] does the source give for CC(=O)C1=CC[C@H]2[C@@H]3CC(=O)C4=C[C@@H](OC(=O)c5ccc(F)cc5)CC[C@]4(C)[C@H]3CC[C@]12C here?
**A.** 22.8%

**Q.** What about the inhibition of growth at 50 µM (MCF7) of the same compound?
**A.** 20.8%

**Q.** And the inhibition at 48 h, 50 µM [2]?
**A.** 50%

**Q.** What about the inhibition of growth at 50 µM (PC-3) of the same compound?
**A.** 8.3%

**Q.** Which inhibition of growth at 50 µM [1] does the source give for CC(=O)C1=CC[C@H]2[C@@H]3CC(=O)C4=C[C@@H](O)CC[C@]4(C)[C@H]3CC[C@]12C here?
**A.** 67.7%

**Q.** What about the inhibition of growth at 50 µM (MCF7) of the same compound?
**A.** 63.5%

**Q.** And the inhibition at 48 h, 50 µM [2]?
**A.** 98.9%

**Q.** And the inhibition of growth at 50 µM (PC-3)?
**A.** 70.6%

**Q.** Which inhibition of growth at 50 µM [1] does the source give for CC(=O)C1=CC[C@H]2[C@@H]3CC(=O)C4=C[C@@H](OC(=O)c5ccc(Cl)cc5)CC[C@]4(C)[C@H]3CC[C@]12C here?
**A.** 88.2%

**Q.** And the inhibition of growth at 50 µM (MCF7)?
**A.** 100%

**Q.** And the inhibition at 48 h, 50 µM [2]?
**A.** 38.8%

**Q.** What about the inhibition of growth at 50 µM (PC-3) of the same compound?
**A.** 87.3%

**Q.** With CC(=O)[C@@]1(OC(=O)c2ccc(F)cc2)CC[C@H]2[C@@H]3C=CC4=CC(=O)CC[C@]4(C)[C@H]3CC[C@@]21C as the compound, how does the inhibition of growth at 50 µM [1] read?
**A.** 35.6%

**Q.** What about the inhibition of growth at 50 µM (MCF7) of the same compound?
**A.** 29.2%

**Q.** And the inhibition at 48 h, 50 µM [2]?
**A.** 100%

**Q.** And the inhibition of growth at 50 µM (PC-3)?
**A.** 30.9%

**Q.** With CC(=O)[C@@]1(OC(=O)Nc2ccc(F)cc2)CC[C@H]2[C@@H]3C=CC4=CC(=O)CC[C@]4(C)[C@H]3CC[C@@]21C as the compound, how does the “growth inhibition (GI)” value (HCT-15) read?
**A.** inactive

**Q.** What about the inhibition of growth at 50 µM (MCF7) of the same compound?
**A.** 20%

**Q.** What about the inhibition at 48 h, 50 µM [2] of the same compound?
**A.** 43.4%

**Q.** What about the inhibition of growth at 50 µM (PC-3) of the same compound?
**A.** 33.4%

**Q.** Which inhibition of growth at 50 µM [1] does the source give for CC(=O)C1=CC[C@H]2[C@@H]3CC(=O)C4=C[C@@H](OC(=O)c5ccc(Br)cc5)CC[C@]4(C)[C@H]3CC[C@]12C here?
**A.** 55.9%

**Q.** And the inhibition of growth at 50 µM (MCF7)?
**A.** 86.2%

**Q.** And the inhibition at 48 h, 50 µM [2]?
**A.** 60.9%

**Q.** And the inhibition of growth at 50 µM (PC-3)?
**A.** 51.9%

**Q.** Which inhibition of growth at 50 µM [1] does the source give for CC(=O)C1=CC[C@H]2[C@@H]3CC(=O)C4=C[C@@H](OC(=O)c5ccccc5)CC[C@]4(C)[C@H]3CC[C@]12C here?
**A.** 48.7%

**Q.** And the inhibition of growth at 50 µM (MCF7)?
**A.** 32.7%

**Q.** What about the inhibition at 48 h, 50 µM [2] of the same compound?
**A.** 89.3%

**Q.** And the inhibition of growth at 50 µM (PC-3)?
**A.** 2.9%

**Q.** For CC(=O)N1CCN(c2ccc(OCC3COC(Cn4ccnc4)(c4ccc(Cl)cc4Cl)O3)cc2)CC1 (configuration not stated) [KETOCONAZOLE], which inhibition of growth at 50 µM [1] is on record?
**A.** 90.6%

**Q.** And the inhibition of growth at 50 µM (MCF7)?
**A.** 95.2%

**Q.** And the inhibition at 48 h, 50 µM [2]?
**A.** 54%

**Q.** What about the inhibition of growth at 50 µM (PC-3) of the same compound?
**A.** 88.5%

**Q.** What does the source list for CC(=O)[C@@]1(OC(=O)c2ccc(Cl)cc2)CC[C@H]2[C@@H]3C=CC4=CC(=O)CC[C@]4(C)[C@H]3CC[C@@]21C?
**A.** inhibition of growth at 50 µM [1]: 39.3%; inhibition of growth at 50 µM (MCF7): 39.8%; inhibition at 48 h, 50 µM [2]: 73.6%; inhibition of growth at 50 µM (PC-3): 46.1%

**Q.** Which results are given for CC(=O)C1=CC[C@H]2[C@@H]3CC(=O)C4=C[C@@H](OC(=O)c5ccc(I)cc5)CC[C@]4(C)[C@H]3CC[C@]12C?
**A.** inhibition of growth at 50 µM [1]: 67.3%; inhibition of growth at 50 µM (MCF7): 100%; inhibition at 48 h, 50 µM [2]: 61.1%; inhibition of growth at 50 µM (PC-3): 64.1%

**Q.** Which inhibition of growth at 50 µM [1] does the source give for CC(=O)C1=CC[C@H]2[C@@H]3CC(=O)C4=C[C@@H](OC(=O)Nc5ccc(F)cc5)CC[C@]4(C)[C@H]3CC[C@]12C here?
**A.** 60.1%

**Q.** What about the inhibition of growth at 50 µM (MCF7) of the same compound?
**A.** 34.6%

**Q.** And the inhibition at 48 h, 50 µM [2]?
**A.** 78.3%

**Q.** What about the inhibition of growth at 50 µM (PC-3) of the same compound?
**A.** 33%

**Q.** Which “growth inhibition (GI)” value (HCT-15) does the source give for CC(=O)[C@@]1(OC(=O)Nc2ccc(Br)cc2)CC[C@H]2[C@@H]3C=CC4=CC(=O)CC[C@]4(C)[C@H]3CC[C@@]21C here?
**A.** inactive

**Q.** And the inhibition of growth at 50 µM (MCF7)?
**A.** 13.1%

**Q.** What about the inhibition at 48 h, 50 µM [2] of the same compound?
**A.** 32%

**Q.** What about the inhibition of growth at 50 µM (PC-3) of the same compound?
**A.** 26.4%

**Q.** With CC(=O)[C@@]1(OC(=O)c2ccccc2)CC[C@H]2[C@@H]3C=CC4=CC(=O)CC[C@]4(C)[C@H]3CC[C@@]21C as the compound, how does the inhibition of growth at 50 µM [1] read?
**A.** 50.8%

**Q.** What about the inhibition of growth at 50 µM (MCF7) of the same compound?
**A.** 26.8%

**Q.** What about the inhibition at 48 h, 50 µM [2] of the same compound?
**A.** 100%

**Q.** And the inhibition of growth at 50 µM (PC-3)?
**A.** 42.5%

**Q.** What does the source list for CC(=O)[C@@]1(OC(=O)c2ccc(I)cc2)CC[C@H]2[C@@H]3C=CC4=CC(=O)CC[C@]4(C)[C@H]3CC[C@@]21C?
**A.** inhibition of growth at 50 µM [1]: 27.5%; inhibition of growth at 50 µM (MCF7): 22.6%; inhibition at 48 h, 50 µM [2]: 74.3%; inhibition of growth at 50 µM (PC-3): 30.8%

**Q.** For CC(=O)C1=CC[C@H]2[C@@H]3CC(=O)C4=C[C@@H](OC(=O)Nc5ccccc5)CC[C@]4(C)[C@H]3CC[C@]12C, which inhibition of growth at 50 µM [1] is on record?
**A.** 41.4%

**Q.** And the inhibition of growth at 50 µM (MCF7)?
**A.** 34.7%

**Q.** And the inhibition at 48 h, 50 µM [2]?
**A.** 73.8%

**Q.** And the inhibition of growth at 50 µM (PC-3)?
**A.** 4.5%

**Q.** For CC(=O)C1=CC[C@H]2[C@@H]3CC(=O)C4=C[C@@H](OC(=O)Nc5ccc(Cl)cc5)CC[C@]4(C)[C@H]3CC[C@]12C, which inhibition of growth at 50 µM [1] is on record?
**A.** 65.3%

**Q.** What about the inhibition of growth at 50 µM (MCF7) of the same compound?
**A.** 13.7%

**Q.** What about the inhibition at 48 h, 50 µM [2] of the same compound?
**A.** 92.4%

**Q.** And the inhibition of growth at 50 µM (PC-3)?
**A.** 63.4%

**Q.** Which inhibition of growth at 50 µM [1] does the source give for CC(=O)[C@@]1(OC(=O)Nc2ccccc2)CC[C@H]2[C@@H]3C=CC4=CC(=O)CC[C@]4(C)[C@H]3CC[C@@]21C here?
**A.** 45.3%

**Q.** And the inhibition of growth at 50 µM (MCF7)?
**A.** 51.3%

**Q.** And the inhibition at 48 h, 50 µM [2]?
**A.** 48.2%

**Q.** And the inhibition of growth at 50 µM (PC-3)?
**A.** 96.6%

**Q.** What does the source list for CC(=O)[C@@]1(OC(=O)Nc2ccc(I)cc2)CC[C@H]2[C@@H]3C=CC4=CC(=O)CC[C@]4(C)[C@H]3CC[C@@]21C?
**A.** growth inhibition (GI) (HCT-15): inactive; growth inhibition (GI) (MCF7): inactive; inhibition at 48 h, 50 µM [2]: 21.7%; inhibition of growth at 50 µM (PC-3): 17.8%

**Q.** What does the source list for CC(=O)C1=CC[C@H]2[C@@H]3CC(=O)C4=C[C@@H](OC(=O)Nc5ccc(Br)cc5)CC[C@]4(C)[C@H]3CC[C@]12C?
**A.** inhibition of growth at 50 µM [1]: 30%; inhibition of growth at 50 µM (MCF7): 14%; inhibition at 48 h, 50 µM [2]: 80.5%; inhibition of growth at 50 µM (PC-3): 26.9%

**Q.** For CC(=O)[C@@]1(O)CC[C@H]2[C@@H]3C=CC4=CC(=O)CC[C@]4(C)[C@H]3CC[C@@]21C, which inhibition of growth at 50 µM [1] is on record?
**A.** 25%

**Q.** And the inhibition of growth at 50 µM (MCF7)?
**A.** 27.8%

**Q.** And the inhibition at 48 h, 50 µM [2]?
**A.** 58.5%

**Q.** And the inhibition of growth at 50 µM (PC-3)?
**A.** 39.6%
